Like-named read-outs stand apart in the source and are kept apart here.
Legend:
[1] = system: Human dermal fibroblasts (HDF); experiment: Mitochondrial dehydrogenase activity (WST-1 formazan assay) in HDF cells; settings: for Revitalizing agent: 24 hours; for activity at 1 µM / activity at 10 µM: Homo sapiens, Fibroblast, read-out: % mitochondrial dehydrogenase activity ± SD
HDF cells [2] = experiment: Summary of uses and toxic effects deduced from the cell assays (Table 1); type: cell-based, Human; settings: for Anti-fibrotic (prevention of scar formation, also from acne) / Cytoprotective (antioxidant, anti-inflammatory and anti-ageing; useful also in the treatment of acne) / Cytotoxic / Irritant / Wound-healing: 24 hours
Method: Antiradical (skin protective): this is deduced from the free radical scavenger effects.
Revitalizing: this is deduced from the increased mitochondrial dehydrogenase effect.
Cytoprotective, with regard to oxidative damage (antioxidant, anti-inflammatory and anti-ageing): this is deduced from antagonising the stimulation of IL-1β and/or IL-6 induced by 100 µM H2O2 and from the absence of changes in cell morphology similar to the ones due to cell senescence.
Wound healing: this is deduced from the effect of inhibiting the production of IL-1β and by the effect of stimulating cell proliferation under standard growth conditions.
Cytotoxicity: this is deduced from the effect of reducing mitochondrial dehydrogenase activity or from the presence of morphologies characteristic of cell senescence.
Irritation: this is deduced from the effect of increased production of IL-6 and/or IL-1β under standard growth conditions.
Said uses in the fields of medicine and cosmetics or the toxic effects of the substances of the invention at a given dosage, for 24 hours, are summarized in Table 1 below.

interleukin 6 (IL-6) = experiment: Inflammatory cytokines in cell supernatant (Mosaic ELISA microarray): IL-6; type: cell-based, Human; settings: for IL-6 ng/(ml* No. of cells from photo) ± SD: 24 hours
Method: (§1) The inflammatory cytokines, CD40 ligand (CD40L), interferon γ (INF-γ), interleukin 1α (IL-1α), interleukin 1β (IL-1β), interleukin 6 (IL-6), interleukin 8 (IL-8), interleukin 17 (IL-17) and tumour necrosis factor α (TNF-α) were determined qualitatively and quantitatively. Each measurement was performed in duplicate using a Mosaic™ ELISA protein microarray assay system from R&D System in accordance with the supplier's instructions. Furthermore, with the aim of obtaining a correlation model between light signal intensity and cytokine concentration, a calibration curve using 6 concentrations was performed for each of them. Analysis of the data was performed using the dedicated Q-View™ Imager software package from Quansys Biosciences

[3] = system: collagen produced by HDF cells; experiment: Quantity of collagen produced by the cells (elution of Sirius Red)
[4] = Anti-radical activity (decay of the DPPH radical); type: biochemical; settings: for Anti-radical (skin protective): 24 hours
Method: With regard to assays aimed at evaluating anti-radical activity, a chemical test was used where the decay of the diphenylpicrylhydrazyl (DPPH) radical is assessed in the absence or in the presence of the test substances. Indeed, the DPPH radical is used to test the ability of substances to act as free radical scavengers. DPPH in solution has a purple colour with a maximum absorbance peak at 517 nm which changes to yellow-colourless when this radical extracts a hydrogen atom from a radical scavenger to give rise to the reduced form DPPH-H. The assay has been conducted in quadruplicate in 96 well microplates (SARSTEDT Tissue Culture Plate 96-well flat bottom cell+). 50 µl of an ethanol solution of the test substance at 2X concentration and then 50 µl of a 200 µM solution of DPPH (MW 168,18, Aldrich 2,2-di(4-tert-octylphenyl)-1-picrylhydrazyl, free radical Lot# MKBF7574V Cat N° 257621-100 mg) have been added to each well of the microplate. A positive control consisting of 0.1 mM vitamin C and a negative control consisting of ethanol alone were included in each microplate. After 30 minutes from the addition of DPPH, photographs of the plates were taken (Canon PowerShot A610 5.0 Mpixels) and read spectrophotometrically at 530 nm.
Based on the analysis of the results reported in Table 9, some substances were selected for further characterisation of their anti-radical activity. For the selected substances, dose-activity curves were obtained and the IC50 value were computed using a non-linear regression model with the Hill equation at variable slope. Such substances had been selected due to both their anti-radical potential and the easiness of their isolation/production. The selection of substances was made in view of cosmetics applications. Moreover their activity on human dermal fibroblasts (HDF) is expected to be useful also for the development of dermatological medications. The selected substances are discussed below.

interleukin 1β (IL-1β) = experiment: Inflammatory cytokines in cell supernatant (Mosaic ELISA microarray): IL-1β; type: cell-based, Human; settings: for IL-1β ng/(ml* No. of cells from photo) ± SD: 24 hours
Method: as §1

HDF cells [5] = experiment: Evaluation of cell proliferation (counting of Sirius Red stained cells in photographs); settings: for No. of cells from photo ± SD: 24 hours
[6] = Dose 1 µm (coptisine: 1 pm [sic])

With `COc1ccc2c(c[n+](C)c3c4cc5c(cc4ccc23)OCO5)c1OC` [chelerythrine] the “concentrations above which the predominant effect is inhibition of mitochondrial dehydrogenase activity” value [1] was “higher than 1 nM”, the “mitochondrial dehydrogenase activity (effect in words)” value ([1]; 1 µM, 18 h) was “stimulation of mitochondrial dehydrogenase activity” and the Revitalizing agent [1, 6] was “Yes”. The Revitalizing agent ([1]; Dose 10 µm) was “No”, the activity at 1 µM ([1]; 18 h) was 107 ± 10.5% and the activity at 10 µM ([1]; 18 h) was 0.87 ± 0.74%. For the same molecule, the activity at 1 µM ([1]; 42 h) was 63.9 ± 4.3%, the activity at 10 µM ([1]; 42 h) was 0.63 ± 8.46% and the “inhibitory power toward the mitochondrial dehydrogenase activity” value ([1]; skin fibroblast cells and/or keratinocytes) was “marked inhibitory power”. The “Anti-fibrotic (prevention of scar formation, also from acne)” value (HDF cells [2]; [6]) was “Yes (↓collagen, ↓IL-6, ↓IL-1β)”, the “Cytoprotective (antioxidant, anti-inflammatory and anti-ageing; useful also in the treatment of acne)” value (HDF cells [2]; [6]) was “Yes (↓IL-6, ↓IL-1β)” and the Cytotoxic (HDF cells [2]; [6]) was “No”. For the same molecule, the Irritant (HDF cells [2]; [6]) was “No”, the Wound-healing (HDF cells [2]; [6]) was “Yes (↑prolif, ↓IL-1β)” and the “Anti-fibrotic (prevention of scar formation, also from acne)” value (HDF cells [2]; Dose 10 µm) was “No”. For the same molecule, the “Cytoprotective (antioxidant, anti-inflammatory and anti-ageing; useful also in the treatment of acne)” value (HDF cells [2]; Dose 10 µm) was “No”, the Cytotoxic (HDF cells [2]; Dose 10 µm) was “Yes (cell death, ↓dehydrogenase)” and the Irritant (HDF cells [2]; Dose 10 µm) was “Yes (↑IL-6, ↑IL-1β)”. For the same molecule, the Wound-healing (HDF cells [2]; Dose 10 µm) was “No”, the “concentrations at which no toxic (cytotoxic and irritant) effects are shown” value (HDF cells [2]; exposure for 24 hours) was “less than or equal to 1 µM” and the “IL-6 production (effect in words)” value (interleukin 6 (IL-6); 1 µM, 34 ng/ml TGF-β1) was “antagonizes the production of IL-6”. For the same molecule, the “IL-6 ng/(ml* No. of cells from photo) ± SD” value (interleukin 6 (IL-6); 1 µM, 34 ng/ml TGF-β1) was 510±43 ng/(ml* No. of cells from photo), the “IL-6 production (effect in words)” value (interleukin 6 (IL-6); 1 µM, 100 µM H2O2) was “antagonizes the production of IL-6” and the “IL-6 ng/(ml* No. of cells from photo) ± SD” value (interleukin 6 (IL-6); 1 µM, 100 µM H2O2) was 626±8 ng/(ml* No. of cells from photo). The “IL-6 ng/(ml* No. of cells from photo) ± SD” value (interleukin 6 (IL-6); 1 µM, Standard conditions) was 396±14 ng/(ml* No. of cells from photo), the “IL-6 production (effect in words)” value (interleukin 6 (IL-6); 1 µM, standard conditions) was “inhibits the production of IL-6” and the “IL-6 production (effect in words)” value (interleukin 6 (IL-6); 10 µM, 34 ng/ml TGF-β1) was “stimulates IL-6 production”. For the same molecule, the “IL-6 ng/(ml* No. of cells from photo) ± SD” value (interleukin 6 (IL-6); 10 µM, 34 ng/ml TGF-β1) was 4652±243 ng/(ml* No. of cells from photo), the “IL-6 production (effect in words)” value (interleukin 6 (IL-6); 10 µM, 100 µM H2O2) was “stimulates IL-6 production” and the “IL-6 ng/(ml* No. of cells from photo) ± SD” value (interleukin 6 (IL-6); 10 µM, 100 µM H2O2) was 5844±328 ng/(ml* No. of cells from photo). For the same molecule, the “IL-6 ng/(ml* No. of cells from photo) ± SD” value (interleukin 6 (IL-6); 10 µM, Standard conditions) was 572±14 ng/(ml* No. of cells from photo), the “IL-6 production (effect in words)” value (interleukin 6 (IL-6); 10 µM, standard conditions) was “stimulates IL-6 production” and the “collagen production (effect in words)” value ([3]; 1 µM, 34 ng/ml TGF-β1) was “antagonizes the stimulation of collagen induced by 34 ng/ml TGF-β1”. For the same molecule, the “collagen production (effect in words)” value ([3]; 1 µM, 100 µM H2O2) was “tendency to stimulate collagen production”, the “collagen production (effect in words)” value ([3]; 1 µM, standard conditions) was “tendency to inhibit collagen production” and the “collagen production (effect in words)” value ([3]; 10 µM, 34 ng/ml TGF-β1) was “stimulates collagen production”. The “collagen production (effect in words)” value ([3]; 10 µM, 100 µM H2O2) was “stimulates collagen production”, the “collagen production (effect in words)” value ([3]; 10 µM, standard conditions) was “stimulates collagen production” and the “% DPPH activity” value ([4]; 1 mM, 30 minutes) was 115%. For the same molecule, the “Anti-radical (skin protective)” value [4, 6] was “No”, the “Anti-radical (skin protective)” value ([4]; Dose 10 µm) was “No” and the “IL-1β production (effect in words)” value (interleukin 1β (IL-1β); 1 µM, 34 ng/ml TGF-β1) was “antagonizes the production of IL-1β”. For the same molecule, the “IL-1β ng/(ml* No. of cells from photo) ± SD” value (interleukin 1β (IL-1β); 1 µM, 34 ng/ml TGF-β1) was 98±10 ng/(ml* No. of cells from photo), the “IL-1β production (effect in words)” value (interleukin 1β (IL-1β); 1 µM, 100 µM H2O2) was “antagonizes the production of IL-1β” and the “IL-1β ng/(ml* No. of cells from photo) ± SD” value (interleukin 1β (IL-1β); 1 µM, 100 µM H2O2) was 69±20 ng/(ml* No. of cells from photo). For the same molecule, the “IL-1β ng/(ml* No. of cells from photo) ± SD” value (interleukin 1β (IL-1β); 1 µM, Standard conditions) was 96±101 ng/(ml* No. of cells from photo), the “IL-1β production (effect in words)” value (interleukin 1β (IL-1β); 1 µM, standard conditions) was “inhibits the production of IL-1β” and the “IL-1β production (effect in words)” value (interleukin 1β (IL-1β); 10 µM, 34 ng/ml TGF-β1) was “stimulates IL-1β production”. For the same molecule, the “IL-1β ng/(ml* No. of cells from photo) ± SD” value (interleukin 1β (IL-1β); 10 µM, 34 ng/ml TGF-β1) was 1632±93 ng/(ml* No. of cells from photo), the “IL-1β production (effect in words)” value (interleukin 1β (IL-1β); 10 µM, 100 µM H2O2) was “stimulates IL-1β production” and the “IL-1β ng/(ml* No. of cells from photo) ± SD” value (interleukin 1β (IL-1β); 10 µM, 100 µM H2O2) was 1735±469 ng/(ml* No. of cells from photo). For the same molecule, the “IL-1β ng/(ml* No. of cells from photo) ± SD” value (interleukin 1β (IL-1β); 10 µM, Standard conditions) was 144±4 ng/(ml* No. of cells from photo), the “IL-1β production (effect in words)” value (interleukin 1β (IL-1β); 10 µM, standard conditions) was “stimulates IL-1β production” and the “cell proliferation (effect in words)” value (HDF cells [5]; 1 µM) was “tendency to stimulate cell proliferation”. For the same molecule, the “No. of cells from photo ± SD” value (HDF cells [5]; 1 µM, 34 ng/ml TGF-β1) was 201±15, the “No. of cells from photo ± SD” value (HDF cells [5]; 1 µM, 100 µM H2O2) was 289±14 and the “No. of cells from photo ± SD” value (HDF cells [5]; 1 µM, Standard conditions) was 229±20. The “cell proliferation (effect in words)” value (HDF cells [5]; 10 µM) was “marked inhibition of proliferation”, the “No. of cells from photo ± SD” value (HDF cells [5]; 10 µM, 34 ng/ml TGF-β1) was 10±4 and the “No. of cells from photo ± SD” value (HDF cells [5]; 10 µM, 100 µM H2O2) was 10±5. The “No. of cells from photo ± SD” value (HDF cells [5]; 10 µM, Standard conditions) was 3±3.

Source: patent EP2787958B1, “CHELIDONIUM MAJUS EXTRACTS AND THEIR USE IN THE TREATMENT OF SKIN DISORDERS AND PROMOTION OF SKIN REGENERATION” (priority 2011, dated 2013)
